Source: PMC11187190, “Structural insights into GABAA receptor potentiation by Quaalude” (Nature Communications, 2024)
Where “and” joins values, the source holds several entries; their conditions need not be identical. Equal entries are not always repeated. Entries after “also recorded” stand apart in the source; their conditions may differ. Where two headings read alike, the source gives them in different places.

Assays:
[1] = test system: β2/3N265M GABAA receptor; conditions: cited from earlier work
[2] = test system: βM286W GABAA receptor; conditions: cited from earlier work
[3] = test system: β1-containing GABAA receptors; conditions: cited from earlier work
[4] = test system: α1M236Wβ2γ2 GABAA receptor; conditions: α1M236W, cited from earlier work
[5] = test system: α1M236Aβ2γ2 GABAA receptor; conditions: α1M236A; cited from earlier work
[6] = test system: β2N265M mutant α1β2γ2 GABAA receptor; assay: Whole-cell patch-clamp electrophysiology, TMD site mutant incl. diazepam competition; assay type: cell-based; conditions: for Effect on potentiation by diazepam (competition assay): diazepam 1 µM, methaqualone 100 µM
Method: (§1) Whole-cell voltage-clamp recordings were collected on the adherent HEK293S GnTI^− that were transiently transfected with the tri-cistronic pEZT construct used for structural analyses, as well as with GFP protein in pEZT for selection. The amount of plasmids used for transfection was 0.2–0.6 μg, and transfection was performed according to Lipofectamine2000 manufacturer’s protocol. The protein was expressed for 1–3 days at 30 °C. On the day of recording, cells were plated onto a 35 mm dish and washed with bath solution (140 mM NaCl, 2.4 mM KCl, 4 mM MgCl2, 4 mM CaCl2, 10 mM HEPES pH 7.3, and 10 mM glucose). Borosilicate pipettes were pulled and polished to an initial resistance of 2–4 MΩ. Pipettes were filled with the pipette solution (100 mM CsCl, 30 mM CsF, 10 mM NaCl, 10 mM EGTA, and 20 mM HEPES pH 7.3). Cells were clamped at −75 mV. The recordings were made using an Axopatch 200B amplifier, sampled at 5 kHz, and low pass filtered at 2 kHz using Digidata 1440 A (Molecular Devices), and analyzed with pClamp 10 software (Molecular Devices). Ligand solutions were prepared in a bath solution. A gravity-driven RSC-200 rapid solution changer (Bio-Logic) was used for solution exchange.
Statistical analysis in Fig. 3 and Fig. 4 was performed using GraphPad Prism 9.2.0 software (GraphPad Software, Inc., La Jolla, CA). Data are expressed as means ± standard deviation of at least three recordings from independent cells. The two-tailed Welch’s t-test was used. A p-value of ≤0.05 was considered statistically significant.

[7] = test system: α1β2γ2 GABAA receptor; conditions: cited from earlier work
[8] = test system: α6β1S265Nδ GABAA receptor; conditions: β1S265N in α6β1δ, cited from earlier work
[9] = test system: α1β2M286Wγ2 GABAA receptor; conditions: β2M286W, cited from earlier work
[10] = test system: α1H102R α1β2γ2 GABAA receptor; conditions: 300 µM methaqualone; cited from earlier work
[11] = test system: α6β2N265Sδ GABAA receptor; conditions: β2N265S in α6β2δ, cited from earlier work
[12] = test system: α1β2N265Mγ2 GABAA receptor; conditions: β2N265M, cited from earlier work
[13] = target: T1, α1Y210A/γ2F77A mutant α1β2γ2 GABAA receptor (Homo sapiens, UniProt P14867+P18507+P47870, DEL344-414/DEL362-381/DEL386-444/F116A/F383Q/G341Q/I446A/K384P/R340S/S415R/S417A/V416A/Y237A/Y342P); assay: Whole-cell patch-clamp electrophysiology, benzodiazepine-site double mutant; assay type: cell-based; conditions: 500 µM and 1000 µM methaqualone with GABA EC10, vs cryo-EM construct
T1 construct: twin-strep tag (N); expressed in transfected cells; host or cells: HEK293S GnTI- (text: HEK cells)
T1 sequence (P14867 with tags, fused parts or gaps Y237A/R340S/G341Q/Y342P/DEL344-414/S415R/V416A/S417A): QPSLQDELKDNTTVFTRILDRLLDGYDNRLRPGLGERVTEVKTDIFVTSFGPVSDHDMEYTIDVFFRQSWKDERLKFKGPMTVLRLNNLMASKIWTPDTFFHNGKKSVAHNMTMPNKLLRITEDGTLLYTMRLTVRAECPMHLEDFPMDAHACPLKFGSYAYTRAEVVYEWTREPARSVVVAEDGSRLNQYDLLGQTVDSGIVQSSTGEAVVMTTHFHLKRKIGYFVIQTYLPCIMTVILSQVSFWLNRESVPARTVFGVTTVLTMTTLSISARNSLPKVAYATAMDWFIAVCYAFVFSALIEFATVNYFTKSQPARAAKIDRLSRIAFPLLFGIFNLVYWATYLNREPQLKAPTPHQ
T1 sequence (P47870 with tags, fused parts or gaps): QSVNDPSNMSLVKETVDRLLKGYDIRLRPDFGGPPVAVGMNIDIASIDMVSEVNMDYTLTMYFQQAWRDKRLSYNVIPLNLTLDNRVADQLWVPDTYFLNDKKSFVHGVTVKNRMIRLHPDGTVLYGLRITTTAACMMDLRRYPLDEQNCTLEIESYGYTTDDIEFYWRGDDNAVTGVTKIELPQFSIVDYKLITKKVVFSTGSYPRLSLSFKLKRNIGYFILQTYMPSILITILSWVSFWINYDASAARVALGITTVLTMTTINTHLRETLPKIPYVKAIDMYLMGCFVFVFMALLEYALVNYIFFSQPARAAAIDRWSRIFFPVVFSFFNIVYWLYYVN
T1 sequence (P18507 with tags, fused parts or gaps F116A/DEL362-381/F383Q/K384P/DEL386-444/I446A): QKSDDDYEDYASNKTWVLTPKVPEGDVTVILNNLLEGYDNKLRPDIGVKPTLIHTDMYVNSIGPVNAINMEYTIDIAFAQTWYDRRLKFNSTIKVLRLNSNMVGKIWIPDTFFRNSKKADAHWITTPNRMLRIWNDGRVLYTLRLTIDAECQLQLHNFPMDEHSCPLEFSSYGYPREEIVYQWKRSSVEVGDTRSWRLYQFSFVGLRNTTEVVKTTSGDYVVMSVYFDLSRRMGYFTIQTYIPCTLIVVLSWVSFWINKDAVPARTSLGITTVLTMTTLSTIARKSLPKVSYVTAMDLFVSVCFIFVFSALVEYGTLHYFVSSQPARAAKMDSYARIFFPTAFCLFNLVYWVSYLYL
Method: as §1, with “A gravity-driven RSC-200 rapid solution changer (Bio-Logic) was used for solution exchange.” left out
Statistical analysis in Fig. 3 and Fig. 4 was performed using GraphPad Prism 9.2.0 software (GraphPad Software, Inc., La Jolla, CA). Data are expressed as means ± standard deviation of at least three recordings from independent cells. […]

[14] = test system: α1β2γ2 GABAA receptor; design: method as in Zhu S et al., 2018; conditions: ref Zhu S et al., 2018, cited from earlier work
[15] = test system: α1β2M286Aγ2 GABAA receptor; conditions: β2M286A; cited from earlier work

CCOC(=O)c1cncn1[C@H](C)c1ccccc1 [etomidate]
Effect of mutation on potentiation [1]: almost entirely eliminates potentiation by etomidate | Effect of mutation on PAM and agonist activities [2]: detrimental to the PAM and agonist activities | Activity at receptors with serine at the β265 position [3]: remain active | Effect of mutation on PAM activity [4]: PAM efficacy plummets | Effect of mutation on direct activation (agonist activity) [4]: dramatically more efficacious agonists | Effect of mutation on PAM activity [5]: increases etomidate modulatory efficacy

CN1C(=O)CN=C(c2ccccc2)c2cc(Cl)ccc21 [diazepam]
Relative current, GABA EC10 + DZ 1uM ([6]; N265M, relative to GABA EC10, single recordings, listed as DZ): 1.349 and 1.602 and 1.299 and 1.556

NCCCC(=O)O [GABA, γ-aminobutyric acid]
Effect of mutation on receptor sensitivity to GABA [4]: increases receptor sensitivity to GABA

Cc1ccccc1-n1c(C)nc2ccccc2c1=O [methaqualone, Methaqualone]
Potentiation in the presence of saturating concentrations of flumazenil ([7]; 300 µM methaqualone): not significantly affected | Shape of PAM concentration-response curve ([7]; decreasing degree of potentiation above 300 µM): bell-shaped concentration-response curve | Agonist activity ([7]; very high concentrations (200–1000 µM)): minute but significant agonist activity | Effect of mutation on PAM activity [8]: from a NAM to a PAM | Effect of mutation on PAM activity ([8]; listed as Methaqualone): Rescued PAM activity | Effect of mutation on PAM activity [9]: more subtle decrease | Effect of mutation on PAM activity ([9]; listed as Methaqualone): Decreased PAM activity | Effect of α1H102R mutation on potentiation [10]: not significantly affected | Effect of mutation on PAM activity [11]: from a PAM into a NAM | Effect of mutation on PAM activity ([11]; listed as Methaqualone): Elimination of PAM activity | Effect of mutation on PAM activity [12]: reduces the PAM activity of methaqualone and PAM and agonist activities of PPTQ significantly | Effect of mutation on PAM activity ([12]; listed as Methaqualone): Almost eliminated PAM activity | Effect of mutation on PAM activity [4]: PAM efficacy plummets | Effect of mutation on direct activation (agonist activity) [4]: dramatically more efficacious agonists | Effect of mutation on direct activation (agonist activity) ([4]; listed as Methaqualone): Pronounced increase in direct activation | Methaqualone-mediated modulation: effect of the two mutations [13]: affected neither | Effect of β2N265M mutation on methaqualone potentiation ([6]; 100 µM methaqualone with GABA EC10): most of the methaqualone activity was lost | Effect on receptor activation by GABA ([6]; 100 µM methaqualone, β2N265M): no measurable effect | Effect on potentiation by diazepam (competition assay) ([6]; β2N265M): block much of the PAM activity of diazepam | Effect on potentiation by diazepam (competition assay) ([6]; β2N265M, listed as MQ): inhibit diazepam potentiation

Fab: Fab fragment of 1F4 monoclonal antibody against the α1 subunit, used for cryo-EM particle alignment
Effect on flumazenil's activity or binding affinity [14]: no significant effect | Shift of the EC50 for GABA to the left ([14]; weak positive allosteric modulator): 2.5 fold

CC(C)c1cccc(C(C)C)c1O [propofol]
Effect of mutation on potentiation [1]: significantly reduces potentiation of propofol | Effect of mutation on PAM and agonist activities [2]: detrimental to the PAM and agonist activities | Activity at receptors with serine at the β265 position [3]: remain active

Cc1ccc(-n2c(-c3ccccc3)nc3ccccc3c2=O)cc1 [PPTQ, 2-phenyl-3-(p-tolyl)-quinazolin-4(3H)-one]
Higher modulatory potency (EC50 value) than methaqualone ([7]; α1β2γ2 receptor subtype): ~50 fold | Effect of mutation on PAM activity [15]: significantly decreases its PAM efficacy; also recorded: decreased PAM activity | Effect of mutation on direct activation (agonist activity) [15]: completely abolishes PPTQ agonist activity; also recorded: Elimination of direct activation | Effect of mutation on PAM activity [9]: significantly decreases its PAM efficacy; also recorded: pronounced decrease in PAM activity | Effect of mutation on direct activation (agonist activity) [9]: completely abolishes PPTQ agonist activity; also recorded: Elimination of direct activation | Effect of mutation on PAM activity [12]: reduces the PAM activity of methaqualone and PAM and agonist activities of PPTQ significantly; also recorded: Elimination | Effect of mutation on direct activation (agonist activity) [12]: reduces the PAM activity of methaqualone and PAM and agonist activities of PPTQ significantly; also recorded: Elimination | Effect of mutation on PAM activity [4]: PAM efficacy plummets; also recorded: decreased PAM activity | Effect of mutation on direct activation (agonist activity) [4]: dramatically more efficacious agonists; also recorded: Pronounced increase in direct activation | Effect of mutation on PAM activity [5]: negligible effects; also recorded: No significant difference | Effect of mutation on direct activation (agonist activity) [5]: negligible effects; also recorded: No significant difference
